# Assay results as given in publication PMC5171807, “Five colour variants of bright luminescent protein for real-time multicolour bioimaging” (Nature Communications, 2016).
# Target: T1, green eNL (GeNL) (Oplophorus gracilirostris, UniProt Q9GV45, A31E/Q38R/Q45L/L54V/A60N/K70R/V71I/A81I/F95D/L99Q/M102K/I117V/P142E/Q151K/Y165I/N193R)
# T1 construct: single-chain fusion: C-terminally truncated mNeonGreen - two-residue linker - NanoLuc (N-terminal deletion 4); N-terminal His tag; E. coli; with mNeonGreen
# T1 sequence (Q9GV45 30-196 with the stated changes): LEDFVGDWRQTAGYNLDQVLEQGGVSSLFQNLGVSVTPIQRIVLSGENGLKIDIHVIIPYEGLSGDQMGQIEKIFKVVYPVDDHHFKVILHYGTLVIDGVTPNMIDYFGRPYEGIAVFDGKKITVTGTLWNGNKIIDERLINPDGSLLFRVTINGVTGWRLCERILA
# Experiment: luminescence initial velocity (first […] s), Michaelis-Menten fit
# Assay type: biochemical
# Settings: 10 pM enzyme; furimazine 0.025-13 μM
structure (smiles),measurement,value
O=c1c(Cc2ccco2)nc2c(Cc3ccccc3)[nH]c(-c3ccccc3)cn1-2 [furimazine],Km,enzymatic parameters (Km and kcat) of the eNLs and Nluc
